As a reminder, the melting point is the temperature of the solid-liquid transition.

As for `CC(C)(C)c1ccc(OCC(=O)NCc2ccc(NS(C)(=O)=O)c(O)c2)cc1` [Example 12, 2-(4-tert-Butylphenoxy) -N-{3-hydroxy-4-[(methylsulfonyl)amino]benzyl}acetamide], the melting point turned out to be 112.3 °C.
`CC(C)(C)c1ccc(OCC(=O)NCc2ccc(NS(C)(=O)=O)cc2)cc1` [Example 9, 2-(4-tert-Butylphenoxy)-N-{4-[(methylsulfonyl)amino]benzyl}acetamide] came in with a melting point of 163.1 °C.

The values are drawn from patent publication US7214824B2, “Substituted N-sulfonylaminobenzyl-2-phenoxyacetamide compounds as VR1 receptor agonists” (Pfizer Inc., priority 2004, dated 2007).
